Read-outs that look alike come from different tables or passages of the source.
Key:
[1] = system: Aspergillus fumigatus; test: Minimal inhibitory concentration (MIC), turbidity method in peptone broth; type: cell-based
Source text: (§1) Die antimikrobiellen Wirkungsspektren eines erfindungsgemäß vorgeschlagenen Wirkstoffes, nämlich des Laurinsäurecholinesterchlorids, und im Vergleich dazu von den homologen Essigsäure-, Capronsäure- und Palmitinsäurecholinesterchloriden sowie von den bekannten Konservierungsmitteln Adamantylcarbonsäurecholinesterchlorid und Chlor- 'hexidin-diacetat wurden durch Bestimmung der minimalen Hemmkonzentration nach der Trübungsmethode in Pepton-Nährlösung bei einem pH von 7,0 festgestellt. Diese Methode ist von K.H. Wallhäußer und H. Schmidt in "Sterilisation, Desinfektion, Konservierung, Chemotherapie", Stuttgart (1967), Seite 420-421 beschrieben. Die Ergebnisse sind in Tabelle 1 zusammengestellt.

[2] = system: Candida albicans ATCC 10231; test: as above; type: cell-based
Source text: as §1

[3] = system: E. coli ATCC 11229; test: as above; type: cell-based; settings: Escherichia coli
Source text: as §1

[4] = system: Fusorium oxysporum; test: as above; type: cell-based; settings: Fusorium oxysporum; Pepton-Nährlösung, pH 7,0; read-out: MIC-Werte
Source text: as §1

[5] = system: Staphylococcus aureus ATCC 25923; test: as above; type: cell-based
Source text: as §1

[6] = system: Streptococcus pyogenes; test: as above; type: cell-based
Source text: as §1

[7] = system: Pseudomonas aeruginosa; test: as above; type: cell-based; settings: Pepton-Nährlösung, pH 7,0
Source text: as §1, with “Diese Methode ist von K.H. Wallhäußer und H. Schmidt in "Sterilisation, Desinfektion, Konservierung, Chemotherapie", Stuttgart (1967), Seite 420-421 beschrieben.” left out

[8] = pancreatic juice
Method: Ferner wurde eine 1 %ige wäßrige Laurinsäurecholinesterchloridlösung in Gegenwart von Pankreassaft simulierten physiologischen Bedingungen (38°C) ausgesetzt und nach 1 Stunde und nach 24 Stunden Proben gezogen und auf entstandene freie Fettsäuren untersucht. Dazu wurden die Proben mit Petroläther extrahiert und im Extrakt ' die Fettsäuren mikroanalytisch bestimmt.

[9] = Pepton-Nährlösung, pH 7,0, read-out: MIC-Werte

SMILES | MIC [1, 9] [µg/mL] | MIC ([2]; ATCC10231, Candida albicans ATCC 10231, Pepton-Nährlösung, pH 7,0, read-out: MIC-Werte) [µg/mL] | MIC ([3]; ATCC11229, E. coli ATCC 11229, Pepton-Nährlösung, pH 7,0, read-out: MIC-Werte) [µg/mL] | MIC [4] [µg/mL] | MIC ([5]; ATCC25923, Staphylococcus aureus ATCC 25923, Pepton-Nährlösung, pH 7,0, read-out: MIC-Werte) [µg/mL] | MIC [6, 9] [µg/mL] | MIC [7] [µg/mL] | MIC ([1]; pH 7, read-out: MIC-Werte) [µg/mL] | MIC ([2]; Candida albicans, ATCC10231, pH 7, read-out: MIC-Werte) [µg/mL] | MIC ([3]; ATCC11229, pH 7, read-out: MIC-Werte) [µg/mL] | MIC ([5]; Staphylococcus aureus, ATCC25923, pH 7, read-out: MIC-Werte) [µg/mL] | MIC ([6]; pH 7, read-out: MIC-Werte) [µg/mL] | Abbauquote [8]
C[N+](C)(C)CCOC(=O)C12CC3CC(CC(C3)C1)C2 [Adamantylcarbonsäurecholinesterchlorid] | > 400 | > 400 | > 400 | > 400 | 200 | 20 | > 400 | – | – | – | – | – | –
CC(=O)OCC[N+](C)(C)C [Essigsäurecholinesterchlorid] | – | – | – | > 400 | – | – | > 400 | > 400 | > 400 | > 400 | > 400 | 100 | –
CCCCCCCC(=O)OCC(O)CO (stereo not drawn) [Glycerinmonocaprylat] | – | – | – | – | – | – | – | – | – | – | – | – | 13,8%
